Source: the NIST ThermoML archive (doi:10.1016/j.fluid.2013.06.006)
± gives the expanded uncertainty stated by the source.

experiment: not given; conditions: 293.2 K; 101.33 kPa; Liquid; Vibrating tube method

Compound | mass density [kg/m3]
CCCCO [butan-1-ol] | 809.33 ± 0.26
O=CO [formic acid] | 1219.5 ± 0.4
CCCCCCCO [heptan-1-ol] | 821.63 ± 0.26
CCCCCCO [hexan-1-ol] | 818.21 ± 0.26
CCCCCO [pentan-1-ol] | 813.98 ± 0.26

experiment: refractive index (Na D-line) (dimensionless); conditions: 293.2 K; 101.33 kPa; Liquid; Standard Abbe refractometry

Compound | refractive index
CCCCO [butan-1-ol] | 1.3983 ± 0.0005
O=CO [formic acid] | 1.3711 ± 0.0005
CCCCCCCO [heptan-1-ol] | 1.4244 ± 0.0005
CCCCCCO [hexan-1-ol] | 1.4181 ± 0.0005
CCCCCO [pentan-1-ol] | 1.41 ± 0.0005
O [water] | 1.3328 ± 0.0005
